Assay results as given in patent US11466255B2, “Methods and compositions for converting non-endocrine pancreatic tissue into insulin-producing cells” (UNIVERSITY OF MIAMI, priority 2015, dated 2022).

System: hNEPT
Test: C-peptide content (ELISA, normalised to DNA) of hNEPT
Assay type: cell-based, human
Method: hNEPT culture: Human islets were isolated at the DRI's cGMP facility following methods already described54, and hNEPT samples (2-4 ml) were obtained as an isolation byproduct. The cells were washed and seeded on tissue culture-treated plates in FBS- and trypsin inhibitor-supplemented RPMI 1640 medium (Gibco-Life Technologies, Grand Island, N.Y.). After 48 h, floating cells were removed with fresh medium replacement. The following day, cultures were either treated with 100 ng/ml BMP-7 (ProSpec-Tany TechnoGene; Ness Ziona, Israel) or remained in the starting medium as controls. Cells were allowed to grow 4-5 days and then the serum-containing medium was replaced by serum-free Advanced RPMI 1640 (Gibco-Life Technologies, Grand Island, N.Y.). Four to five days later the cells were either subjected to static incubation to evaluate their ability to respond to changing glucose concentration or collected for further assessments (such as C-peptide content, immunohistochemistry or cellular composition) or transplantation.
Glucose-stimulated insulin release (GSIR) and total insulin determination: GSIR was performed in six-well plate cultures. BMP-7-treated samples and untreated controls were washed twice with DMEM medium containing 2.5 mM glucose (Low glucose medium or L-medium). Upon addition of 2 ml of the same medium, the cells were cultured for 1 h at 37° C. to bring their insulin secretion to baseline. After 2 more washes, 1 ml of L-medium was added and the cells were returned to the incubator for 1 h. At the end of incubation period, the medium was collected and the cells exposed for 1 h to 1 ml of 20 mM glucose DMEM medium (high glucose medium or H-medium). After the collection of the H-medium supernatant, the cells were washed three times with L-medium and cultured again in low glucose conditions for 1 h. As before, supernatant was collected at the end of the incubation period. The second low glucose incubation is necessary to confirm that the cells are responding to glucose concentration changes in a physiological manner and not dumping insulin. After the last incubation, the cells were collected, washed in PBS and lysed with 1 ml of T-Per (Thermo Scientific, Rockford, Ill.). The lysates and the supernatants from GSIR test were evaluated with ELISA for C-peptide content (Mercodia, Uppsala, Sweden) following manufacturer's instructions. DNA content of the lysates was used to normalize the results (Pico-Green dsDNA Assay Kit, Life Technologies-Molecular Probes, Grand Island, N.Y.).

c1cc(-c2cnn3cc(-c4ccc(OCCN5CCCCC5)cc4)cnc23)ccn1 [dorsomorphin, reference compound]
reduction of the BMP-7-mediated induction of C-peptide (dorsomorphin added to BMP-7, n=4): ~3 fold

B1: BMP-4: member of the BMPs family of proteins that signals through ALK3 and ALK6; SEQ ID NO:3 (protein, listed as Homo sapiens)
chain: SPKHHSQRARKKNKNCRRHSLYVDFSDVGWNDWIVAPPGYQAFYCHGDCPFPLADHLNSTNHAIVQTLVNSVNSSIPKACCVPTELSAISMLYLDEYDKVVLKNYQEMVVEGCGCR
modifications: fragment of BMP-4
C-peptide production induction vs. t=0 (BMP-4 vs BMP-7 comparison, n=6, P=0.43): 198±62.8 fold
